Test results: publication PMC3714282, “Pharmacometabolomics of Response to Sertraline and to Placebo in Major Depressive Disorder – Possible Role for Methoxyindole Pathway” (PLoS ONE, 2013)

Test system: serum metabolites (tryptophan, tyrosine, purine pathways, antioxidants)
Test: LCECA metabolomic profiling of serum: change from baseline at week 1 and week 4 (all, responders, non-responders)
Format: in vivo, human
Conditions: serum; for Change 5-HT / Change 5-HTP / Change 5-MTPOL / Change 7-MXAN / Change ATOCO / Change CYS / Change DIOHMAL / Change DOPAC / Change DTOCO / Change GR / Change GRMP / Change GSH / Change HGA / Change HVA / Change HX / Change KYN / Change LD / Change MEL / Change METH / Change MHPG / Change NA-5-HT / Change TRP / Change TRPOL / Change TYR / Change UA / Change VMA / Change XAN / Change XANTH / Change 3-OHKY / Change 3-OMD / Change 4-HBAC / Change 4-HPAC / Change 4-HPLA / Change 5-HIAA: log-transformed concentration; for Change in ratio 3-OHKY/5-HT, Estimate / Change in ratio 3-OHKY/5-HTP, Estimate / Change in ratio 3-OHKY/5-MTPOL, Estimate / Change in ratio 3-OHKY/MEL, Estimate / Change in ratio 3-OHKY/NA-5-HT, Estimate / Change in ratio 3-OHKY/TRP, Estimate / Change in ratio KYN/5-HT, Estimate / Change in ratio KYN/5-HTP, Estimate / Change in ratio KYN/5-MTPOL, Estimate / Change in ratio KYN/MEL, Estimate / Change in ratio KYN/NA-5-HT, Estimate / Change in ratio KYN/TRP, Estimate: pre- to post-treatment (four weeks)
Excerpt: Study participants were outpatients, 18–65 years of age, from various clinical sites across the United States. […] A complete description of the inclusion and exclusion used in this study can be found in Table S1. The study protocol was developed in accordance with the principles of the Declaration of Helsinki. All patients provided written informed consent. The study was sponsored and monitored by Pfizer, Inc. Each site's institutional review board approved and oversaw the study. The primary outcome measure was the HAMD17, used to assess depressive symptom severity. Measures were gathered at baseline, and weeks 1 and 4 of treatment at the patient's visits. Serum samples were collected using standard protocol at baseline, week 1 and week 4 of treatment at the clinic visits. Whole blood was collected in serum collection tubes and inverted 5–8 times. Serum samples were allowed to clot at room temperature for 60 minutes and then centrifuged at 1,300×g for 15 minutes. Following centrifugation supernatant was frozen at −80°C until analysis.
Samples were analyzed using a liquid chromatography electrochemical array (LCECA) platform that has been extensively validated and used in our prior studies in neurodegenerative and psychiatric disorders [30]–[34]. The method includes multiple compounds from the tyrosine, tryptophan, sulfur amino acids and purine pathways, and markers of oxidative stress and protection (for the list of metabolites and abbreviations see Table 1). Levels of 5-Methoxytryptamine (5-MTPM) were measured using a gas chromatography time-of-flight-mass spectrometry (GCTOF-MS) platform. Samples were prepared for analysis as previously described. During the sample preparation, pools were created from equal volumes of subaliquots of all samples. Concentrations of metabolites in the individual samples were expressed as a percentage of the concentration of those metabolites in the averaged pool.
Data preprocessing: We first removed the metabolites that have more than 40% missing values. […] Principal components analysis (PCA; SIMCA-P+12.0) was used to identify outliers. The analysis was performed for each time point. […] Subjects with ≥3 standard deviations away from the center of data cloud within two principal components (PC's) scores scatter plot were considered outliers and were removed from further analysis.
These analyses were conducted separately for the sertraline and placebo groups. Between groups t-tests were used to compare baseline to one week and baseline to four week change scores between the sertraline and placebo groups.
Signatures of response to sertraline and placebo were identified by using paired t-tests to compare week 4 metabolite levels to baseline metabolite levels in the responders and non-responders to therapy. […] These analyses were also performed to evaluate changes in ratios of individual metabolites within (e.g., 5-HT/5-HTP) and between branches of tryptophan pathway (e.g., KYN/MEL).

[1] = after four weeks, sertraline group
[2] = after one week, responders to sertraline
[3] = after one week, sertraline group

SMILES: CN[C@H]1CC[C@@H](c2ccc(Cl)c(Cl)c2)c2ccccc21 [Sertraline, sertraline]
- Change 5-HT [1]: −1.9
- Change 5-HTP [1]: 0.12
- Change 5-MTPOL [1]: 0.13
- Change 7-MXAN [1]: 0.083
- Change ATOCO [1]: 0.63
- Change CYS [1]: −0.0014
- Change DIOHMAL [1]: 0.37
- Change DOPAC [1]: −0.014
- Change DTOCO [1]: 0.71
- Change GR [1]: 0.0002
- Change GRMP [1]: 0.052
- Change GSH [1]: 0.014
- Change HGA [1]: 0.4
- Change HVA [1]: 0.1
- Change HX [1]: −0.0057
- Change KYN [1]: 0.045
- Change LD [1]: 0.12
- Change MEL [1]: 0.49
- Change METH [1]: 0.2
- Change MHPG [1]: −0.21
- Change NA-5-HT [1]: 0.041
- Change TRP [1]: 0.07
- Change TRPOL [1]: 0.061
- Change TYR [1]: 0.13
- Change UA [1]: −0.058
- Change VMA [1]: −0.015
- Change XAN [1]: −0.16
- Change XANTH [1]: 0.047
- Change 3-OHKY [2]: -0.02
- Change 3-OMD [2]: -0.18
- Change 4-HBAC [2]: 0.49
- Change 4-HPAC [2]: 0.47
- Change 4-HPLA [2]: 0.18
- Change 5-HIAA [2]: -0.14
- Change 5-HT [2]: -0.79
- Change 5-HTP [2]: -0.06
- Change 5-MTPOL [2]: 0.15
- Change 7-MXAN [2]: -0.51
- Change ATOCO [2]: 0.4
- Change CYS [2]: 0.0024
- Change DIOHMAL [2]: 0.2
- Change DOPAC [2]: -0.048
- Change DTOCO [2]: 0.75
- Change GR [2]: 0.17
- Change GRMP [2]: -0.0083
- Change GSH [2]: -0.02
- Change HGA [2]: 0.19
- Change HVA [2]: 0.13
- Change HX [2]: -0.075
- Change KYN [2]: 0.052
- Change LD [2]: 0.13
- Change MEL [2]: 0.41
- Change METH [2]: 0.0032
- Change MHPG [2]: -0.33
- Change NA-5-HT [2]: -0.022
- Change TRP [2]: 0.044
- Change TRPOL [2]: 0.082
- Change TYR [2]: -0.027
- Change UA [2]: -0.048
- Change VMA [2]: 0.1
- Change XAN [2]: -0.21
- Change XANTH [2]: 0.033
- Change 3-OHKY [3]: −0.074
- Change 3-OMD [3]: −0.12
- Change 4-HBAC [3]: −0.085
- Change 4-HPAC [3]: 0.29
- Change 4-HPLA [3]: 0.1
- Change 5-HIAA [3]: −0.17
- Change 5-HT [3]: −0.75
- Change 5-HTP [3]: −0.11
- Change 5-MTPOL [3]: 0.041
- Change 7-MXAN [3]: −0.099
- Change ATOCO [3]: 0.21
- Change CYS [3]: −0.034
- Change DIOHMAL [3]: 0.18
- Change DOPAC [3]: −0.13
- Change DTOCO [3]: 0.3
- Change GR [3]: −0.23
- Change GRMP [3]: −0.011
- Change GSH [3]: −0.013
- Change HGA [3]: 0.28
- Change HVA [3]: 0.053
- Change HX [3]: −0.07
- Change KYN [3]: −0.045
- Change LD [3]: 0.081
- Change MEL [3]: 0.34
- Change METH [3]: 0.097
- Change MHPG [3]: −0.17
- Change NA-5-HT [3]: 0.0079
- Change TRP [3]: 0.0036
- Change TRPOL [3]: 0.033
- Change TYR [3]: 0.083
- Change UA [3]: −0.077
- Change VMA [3]: 0.11
- Change XAN [3]: −0.19
- Change XANTH [3]: 0.082
- Change in ratio 3-OHKY/5-HT, Estimate (Nonresponder to sertraline): 0.69
- Change in ratio 3-OHKY/5-HTP, Estimate (Nonresponder to sertraline): −0.099
- Change in ratio 3-OHKY/5-MTPOL, Estimate (Nonresponder to sertraline): −0.035
- Change in ratio 3-OHKY/MEL, Estimate (Nonresponder to sertraline): −0.11
- Change in ratio 3-OHKY/NA-5-HT, Estimate (Nonresponder to sertraline): 0.0038
- Change in ratio 3-OHKY/TRP, Estimate (Nonresponder to sertraline): −0.04
- Change in ratio KYN/5-HT, Estimate (Nonresponder to sertraline): 0.72
- Change in ratio KYN/5-HTP, Estimate (Nonresponder to sertraline): −0.076
- Change in ratio KYN/5-MTPOL, Estimate (Nonresponder to sertraline): −0.012
- Change in ratio KYN/MEL, Estimate (Nonresponder to sertraline): −0.085
- Change in ratio KYN/NA-5-HT, Estimate (Nonresponder to sertraline): 0.027
- Change in ratio KYN/TRP, Estimate (Nonresponder to sertraline): −0.017
- Change in ratio 3-OHKY/5-HT, Estimate (Responder to sertraline): 0.97
- Change in ratio 3-OHKY/5-HTP, Estimate (Responder to sertraline): 0.025
- Change in ratio 3-OHKY/5-MTPOL, Estimate (Responder to sertraline): −0.043
- Change in ratio 3-OHKY/MEL, Estimate (Responder to sertraline): −0.27
- Change in ratio 3-OHKY/NA-5-HT, Estimate (Responder to sertraline): −0.00032
- Change in ratio 3-OHKY/TRP, Estimate (Responder to sertraline): 0.013
- Change in ratio KYN/5-HT, Estimate (Responder to sertraline): 0.95
- Change in ratio KYN/5-HTP, Estimate (Responder to sertraline): 0.0057
- Change in ratio KYN/5-MTPOL, Estimate (Responder to sertraline): −0.062
- Change in ratio KYN/MEL, Estimate (Responder to sertraline): −0.28
- Change in ratio KYN/NA-5-HT, Estimate (Responder to sertraline): −0.019
- Change in ratio KYN/TRP, Estimate (Responder to sertraline): −0.006
